Data: patent US20240208950A1, “COMPOSITIONS AND METHODS FOR TREATMENT OF CERVICAL AND OVARIAN CANCER” (SOUTH DAKOTA BOARD OF REGENTS, priority 2021, published 2024)

What was measured:
[1] = tested on: CaSki cells derived xenograft tumors; experiment: Orthotopic xenograft mouse model of cervical cancer; type: in vivo, female athymic nude mice; settings: 250 μg/mice intra-tumoral
[2] = tested on: HPV16 E6 and E7 transcripts in SiHa cells; experiment: qPCR of HPV E6 and HPV E7 transcripts, SiHa; type: cell-based, human; settings: 18 hours
SiHa cells [3] = experiment: Cell invasion assay (Boyden chamber and xCELLigence), SiHa; type: cell-based, human
Excerpt: FIGS. 8A and 8B show the effect of ORM-Br on invasion of CaSki (FIG. 8A) and SiHa (FIG. 8B) cell lines in Boyden chamber and xCELLigence assay. The images represent the invaded cells of control and ORM-Br-treated CaSki and SiHa cells as determined by Boyden Chamber kit. The magnification was at 20 for the images of FIGS. 8A and 8B.

SiHa cells [4] = experiment: Cell cycle analysis by flow cytometry, SiHa; type: cell-based, human; settings: 10 and 15 μM
Experimental: The effect of Br-ORM on cell cycle analysis was performed by flow cytometry as has described in the art. In brief, approximately 70% confluent cervical cancer cells were treated with Br-ORM (10 and 20 μM) for 24 hours. The cells were trypsinized and washed twice with ice-cold PBS (1×). The cell pellets were resuspended in 50 μL of ice cold PBS (1×) and 450 μL of cold methanol. The cells were washed twice with ice cold PBS (1×), suspended in 500 μL PBS, and incubated with 500 μL RNase (20 μg/mL final concentration) at 37° C. for 1 hour. The cells were chilled over ice for 10 minutes and stained with propidium iodide (50 μg/mL final concentration) for 1 hour and analyzed by flow cytometry (BD Accuri C6; Becton Dickinson, Mountain View, CA, USA). Data was analyzed by using Modfit software.
To examine the effect on cell cycle distribution, cervical cancer cells were treated with Br-ORM (10 and 15 μM) and analyzed by flow cytometry (FIG. 13F(i)-(ii)).

[5] = tested on: cleaved PARP in SiHa cells; experiment: Western blot for cleavage of PARP, SiHa; type: cell-based, human; settings: 24 hours
Experimental: The effect of Br-ORM on protein expression in cervical cancer cells were determined by Western blot analysis by using specific antibodies.
It was observed that Br-ORM exerts potent growth inhibitory effects, so the effect of Br-ORM on apoptosis induction was further examined. Cervical cancer cells were treated with Br-ORM (10 μM) for 24 hours and the apoptosis inducing effect of Br-ORM was analyzed by Annexin V staining and Western blot analysis for cleavage in PARP protein.
FIG. 13. Br-ORM decreases proliferation and colony formation of cervical cancer cells. FIG. 13A. Effect of Br-ORM on cell viability of CaSki cells (i) and SiHa cells (ii). Briefly, cervical cancer cells were seeded (2500) in each well of 96-well plate and after overnight incubation; cells were treated with indicated concentrations of Br-ORM for 24 hours. Cell viability was assessed by MTS assay. […] Bar graphs indicating quantification of colony formation in CaSki (i), and SiHa (ii) cells of cervical cancer with respect to vehicle control. […] Briefly, cervical cancer cells were treated with Br-ORM (10 μM) for 24 hours and the apoptosis inducing effect of Br-ORM was analyzed by Annexin V staining. […] The equal loading of protein in each lane was determined by probing the blots with β-actin antibody (FIG. 13F). […] Br-ORM arrests cell cycle in G1/S phase as determined by flow cytometry. […]

CaSki cells = experiment: Cell proliferation assay (MTS), CaSki; type: cell-based, human; settings: 1-20 μM, 24 hours
Experimental: The effect of Br-ORM on CaSki and SiHa cells proliferation was performed using the MTS assay. Briefly, cells were seeded at a density of 5×10^3 cells per well in 96 well plate and allowed to stand overnight at 37° C. and 5% CO2 incubator. Next day, cells were treated with different concentrations of Br-ORM (1, 5, 10 and 20 μM). DMSO was used as a vehicle for the treatment of control cells. Twenty four hours post-treatment, 20 μL of MTS reagent (5 mg/mL) was added in each well and further incubated the plate for 2 hours in a CO2 incubator. Absorbance was taken after 2 hours at […] (SpectraMax M2 spectrophotometer, Molecular Devices, Sunnyvale, CA, USA). The experiment was performed in triplicates. Results were represented as percent viability with respect to the control group. […]
FIG. 13. […] Cell viability was assessed by MTS assay. […] Bar graphs indicating quantification of colony formation in CaSki (i), and SiHa (ii) cells of cervical cancer with respect to vehicle control. […] Briefly, cervical cancer cells were treated with Br-ORM (10 μM) for 24 hours and the apoptosis inducing effect of Br-ORM was analyzed by Annexin V staining. […] The equal loading of protein in each lane was determined by probing the blots with β-actin antibody (FIG. 13F). […] Br-ORM arrests cell cycle in G1/S phase as determined by flow cytometry. […]

[6] = three times per week, vs control

COc1ccc2c(c1)OC(C)(C)C(c1ccc(Br)cc1)C2c1ccc(OCCN2CCCC2)cc1 (centres unmarked) [ORM-Br] was tested, and the tumor volume [1, 6] was “significantly (p<0.05) reduced”, the tumor weight [1, 6] was “significantly (p<0.05) reduced” and the “expression of E-cadherin in xenograft tumors (IHC)” value ([1]; excised tumors) was “increase in the expression of E-cadherin”. The “expression of miR-200a in excised xenograft tumors (in situ hybridization)” value ([1]; excised tumors) was “Increased expression of miR-200a”, the “expression of β-catenin, vimentin, snail, slug, HPV-E6, HPV-E7, and PCNA in xenograft tumors (IHC)” value ([1]; excised tumors) was “significant downregulation” and the “HPV16 E6 and E7 transcripts” value [2] was “significant downregulation”. The cell invasion (SiHa cells [3]) was “inhibits the invasion”, the cell cycle distribution (SiHa cells [4]) was “arrested cell cycle progression of CaSki and SiHa cells at G1/S phase” and the “protein levels of cleaved PARP” value [5] was “dose dependently enhanced the protein levels of cleaved PARP”. For the same compound, the “cell viability / growth” value (CaSki cells) was “inhibits the growth” and the “cell viability / growth” value (CaSki cells; listed as Br-ORM) was “dose dependently inhibited the cell viability”.
